Assay: molar heat capacity at constant pressure
Conditions: 101.33 kPa

CCC[n+]1ccn(C)c1.[Br-] [1-methyl-3-propylimidazolium bromide]
Conditions	molar heat capacity at constant pressure [J/K/mol]
270.71 K, Metastable crystal, Small (less than 1 g) adiabatic calorimetry	224.7
270.82 K, Metastable crystal, Small (less than 1 g) adiabatic calorimetry	229.03
271.87 K, Liquid, Small (less than 1 g) adiabatic calorimetry	272.35
272 K, Crystal, Vacuum adiabatic calorimetry	235.92
272.05 K, Liquid, Small (less than 1 g) adiabatic calorimetry	273.02
273.43 K, Metastable crystal, Small (less than 1 g) adiabatic calorimetry	235.43
273.97 K, Liquid, Small (less than 1 g) adiabatic calorimetry	272.86
274.08 K, Crystal, Vacuum adiabatic calorimetry	241.07
274.59 K, Liquid, Small (less than 1 g) adiabatic calorimetry	273.93
275.18 K, Metastable crystal, Small (less than 1 g) adiabatic calorimetry	235.92
276.07 K, Liquid, Small (less than 1 g) adiabatic calorimetry	273.68
276.15 K, Crystal, Vacuum adiabatic calorimetry	246.77
276.27 K, Metastable crystal, Small (less than 1 g) adiabatic calorimetry	241.56
277.13 K, Liquid, Small (less than 1 g) adiabatic calorimetry	274.62
277.85 K, Crystal, Vacuum adiabatic calorimetry	253.97
278.17 K, Liquid, Small (less than 1 g) adiabatic calorimetry	274.27
278.22 K, Crystal, Vacuum adiabatic calorimetry	253.72
279.07 K, Metastable crystal, Small (less than 1 g) adiabatic calorimetry	249.25
279.67 K, Liquid, Small (less than 1 g) adiabatic calorimetry	275.3
280.27 K, Liquid, Small (less than 1 g) adiabatic calorimetry	274.91
281.68 K, Metastable crystal, Small (less than 1 g) adiabatic calorimetry	255.47
281.81 K, Metastable crystal, Small (less than 1 g) adiabatic calorimetry	258.32
282.22 K, Liquid, Small (less than 1 g) adiabatic calorimetry	276.12
282.37 K, Liquid, Small (less than 1 g) adiabatic calorimetry	275.55
284.47 K, Liquid, Small (less than 1 g) adiabatic calorimetry	276.33
284.5 K, Metastable crystal, Small (less than 1 g) adiabatic calorimetry	269.64
284.76 K, Liquid, Small (less than 1 g) adiabatic calorimetry	277
286.57 K, Liquid, Small (less than 1 g) adiabatic calorimetry	276.88
287.11 K, Metastable crystal, Small (less than 1 g) adiabatic calorimetry	284.18
287.31 K, Liquid, Small (less than 1 g) adiabatic calorimetry	277.78
287.83 K, Metastable crystal, Small (less than 1 g) adiabatic calorimetry	291.75
288.67 K, Liquid, Small (less than 1 g) adiabatic calorimetry	277.6
289.86 K, Liquid, Small (less than 1 g) adiabatic calorimetry	278.56
290.76 K, Liquid, Small (less than 1 g) adiabatic calorimetry	278.25
292.42 K, Liquid, Small (less than 1 g) adiabatic calorimetry	279.52
292.85 K, Liquid, Small (less than 1 g) adiabatic calorimetry	278.99
294.97 K, Liquid, Small (less than 1 g) adiabatic calorimetry	280.39
297.52 K, Liquid, Small (less than 1 g) adiabatic calorimetry	281.17
300.09 K, Liquid, Small (less than 1 g) adiabatic calorimetry	282.13
302.65 K, Liquid, Small (less than 1 g) adiabatic calorimetry	282.97
305.21 K, Liquid, Small (less than 1 g) adiabatic calorimetry	283.79
307.77 K, Liquid, Small (less than 1 g) adiabatic calorimetry	284.73
310.34 K, Liquid, Small (less than 1 g) adiabatic calorimetry	285.68
312.44 K, Liquid, Small (less than 1 g) adiabatic calorimetry	286.13
315.01 K, Liquid, Small (less than 1 g) adiabatic calorimetry	287.07
317.56 K, Liquid, Small (less than 1 g) adiabatic calorimetry	287.97
320.1 K, Liquid, Small (less than 1 g) adiabatic calorimetry	288.9
322.63 K, Liquid, Small (less than 1 g) adiabatic calorimetry	289.74
325.17 K, Liquid, Small (less than 1 g) adiabatic calorimetry	290.68
327.71 K, Liquid, Small (less than 1 g) adiabatic calorimetry	291.56
330.24 K, Liquid, Small (less than 1 g) adiabatic calorimetry	292.55
332.78 K, Liquid, Small (less than 1 g) adiabatic calorimetry	293.41
335.3 K, Liquid, Small (less than 1 g) adiabatic calorimetry	294.48
337.83 K, Liquid, Small (less than 1 g) adiabatic calorimetry	295.38
340.36 K, Liquid, Small (less than 1 g) adiabatic calorimetry	295.97
342.88 K, Liquid, Small (less than 1 g) adiabatic calorimetry	296.86
345.4 K, Liquid, Small (less than 1 g) adiabatic calorimetry	297.86
347.92 K, Liquid, Small (less than 1 g) adiabatic calorimetry	298.8
350.44 K, Liquid, Small (less than 1 g) adiabatic calorimetry	299.62
352.95 K, Liquid, Small (less than 1 g) adiabatic calorimetry	300.4
355.46 K, Liquid, Small (less than 1 g) adiabatic calorimetry	301.37
357.97 K, Liquid, Small (less than 1 g) adiabatic calorimetry	302.27
359.15 K, Liquid, Small (less than 1 g) adiabatic calorimetry	302.7
360.47 K, Liquid, Small (less than 1 g) adiabatic calorimetry	303.23
361.69 K, Liquid, Small (less than 1 g) adiabatic calorimetry	304.73
362.97 K, Liquid, Small (less than 1 g) adiabatic calorimetry	304.73
364.23 K, Liquid, Small (less than 1 g) adiabatic calorimetry	305.78
366.73 K, Liquid, Small (less than 1 g) adiabatic calorimetry	305.51

Reference: the NIST ThermoML archive (doi:10.1016/j.jct.2006.05.008)
